From ChEMBL document CHEMBL2203042, “Novel bivalent ligands for D2/D3 dopamine receptors: Significant co-operative gain in D2 affinity and potency” (ACS Med Chem Lett, 2012) come the findings set out here.

The species named for one assay is Rattus norvegicus. Put plainly: Selectivity ratio of Ki for rat cloned dopamine D2L receptor to Ki for rat cloned dopamine D3 receptor.
The next assay concerns the target D(2) dopamine receptor (Rattus norvegicus, UniProt P61169). Nature of the assay: Displacement of [3H]spiperone from rat cloned dopamine D2L receptor expressed in HEK-293 cells by competition binding assay. The format is cell-based, HEK293. A general note: In a radioligand displacement assay an active substance lowers the binding of a labelled ligand.
The target of the next assay is D(3) dopamine receptor (Rattus norvegicus, UniProt P19020). Put plainly: Displacement of [3H]spiperone from rat cloned dopamine D3 receptor expressed in HEK-293 cells by competition binding assay. The format is cell-based, HEK293.
D(3) dopamine receptor, sequence (P19020 whole entry): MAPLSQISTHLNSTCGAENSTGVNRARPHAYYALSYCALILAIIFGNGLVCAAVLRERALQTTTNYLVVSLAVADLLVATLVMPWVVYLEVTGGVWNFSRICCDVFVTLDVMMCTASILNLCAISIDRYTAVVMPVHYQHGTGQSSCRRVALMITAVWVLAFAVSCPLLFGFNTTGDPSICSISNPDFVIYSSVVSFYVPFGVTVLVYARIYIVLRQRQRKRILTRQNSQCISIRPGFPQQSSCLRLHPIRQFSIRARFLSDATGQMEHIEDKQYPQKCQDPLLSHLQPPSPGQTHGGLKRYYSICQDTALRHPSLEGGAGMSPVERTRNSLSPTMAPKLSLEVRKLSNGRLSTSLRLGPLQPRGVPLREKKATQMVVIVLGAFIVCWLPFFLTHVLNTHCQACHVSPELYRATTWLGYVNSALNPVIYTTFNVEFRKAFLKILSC

D(2) dopamine receptor, sequence (P61169 whole entry): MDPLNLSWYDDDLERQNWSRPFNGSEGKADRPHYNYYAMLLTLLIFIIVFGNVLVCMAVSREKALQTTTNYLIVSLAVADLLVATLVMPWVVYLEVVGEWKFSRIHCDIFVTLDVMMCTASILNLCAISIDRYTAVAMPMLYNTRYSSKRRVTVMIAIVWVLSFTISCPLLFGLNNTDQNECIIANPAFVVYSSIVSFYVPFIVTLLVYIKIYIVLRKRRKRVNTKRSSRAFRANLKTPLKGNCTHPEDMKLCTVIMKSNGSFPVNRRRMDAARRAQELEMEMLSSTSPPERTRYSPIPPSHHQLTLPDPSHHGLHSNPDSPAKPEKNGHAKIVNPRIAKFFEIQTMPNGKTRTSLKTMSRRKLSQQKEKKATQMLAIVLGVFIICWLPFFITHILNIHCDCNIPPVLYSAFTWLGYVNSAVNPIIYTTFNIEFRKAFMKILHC

On to `CCCN(CCCCN(CCC)[C@H]1CCc2c(O)cccc2C1)[C@H]1CCc2c(O)cccc2C1`, for which, in the assay listed under Rattus norvegicus, the Ratio Ki was found to be 17. The results for the Ki on D(2) dopamine receptor and on D(3) dopamine receptor were 0.07 µM and 0.004 µM, respectively.

Turning to `CCCCCCCCCN(CCC)[C@H]1CCc2c(O)cccc2C1`, the Ratio Ki in the assay listed under Rattus norvegicus came to 9.4. Besides, the Ki at D(2) dopamine receptor came to 0.069 µM; at D(3) dopamine receptor it was 0.0073 µM.

In the case of `CCCN(CCCCCCCCCc1ccccc1)[C@H]1CCc2c(O)cccc2C1`, the Ratio Ki in the assay filed under Rattus norvegicus was 6.1. Besides, the results for the Ki at D(2) dopamine receptor and on D(3) dopamine receptor were 0.14 µM and 0.023 µM, respectively.

In the case of `CCCN(CCCCCCCN(CCC)[C@H]1CCc2c(O)cccc2C1)[C@H]1CCc2c(O)cccc2C1`, the Ratio Ki in the assay filed under Rattus norvegicus came to 3.6. Moreover, the Ki on D(2) dopamine receptor was found to be 0.0039 µM; at D(3) dopamine receptor it was 0.0011 µM.

Regarding `CCCN(CCCCCCCCCCCCCCN(CCC)[C@H]1CCc2c(O)cccc2C1)[C@H]1CCc2c(O)cccc2C1`, the Ratio Ki in the assay listed under Rattus norvegicus came to 1.7. For the same compound, the Ki came out at 0.055 µM on D(2) dopamine receptor and 0.031 µM at D(3) dopamine receptor.

Regarding `CCCN(CCCCCN(CCC)[C@H]1CCc2c(O)cccc2C1)[C@H]1CCc2c(O)cccc2C1`, the Ratio Ki in the assay filed under Rattus norvegicus was 21. Further, the Ki at D(2) dopamine receptor was found to be 0.075 µM; on D(3) dopamine receptor it was 0.0036 µM.

For `CCCN(CCCCCCCCCCCCN(CCC)[C@H]1CCc2c(O)cccc2C1)[C@H]1CCc2c(O)cccc2C1`, the Ratio Ki in the assay listed under Rattus norvegicus is 1. Also, the figures for the Ki at D(2) dopamine receptor and at D(3) dopamine receptor were 0.011 µM and 0.01 µM, respectively.

`CCCN(CCN(CCC)[C@H]1CCc2c(O)cccc2C1)[C@H]1CCc2c(O)cccc2C1`: the Ratio Ki in the assay listed under Rattus norvegicus was 14. The Ki on D(2) dopamine receptor turned out to be 0.016 µM; at D(3) dopamine receptor it was 0.0011 µM.

On to `CCCN(CCCCCCN(CCC)[C@H]1CCc2c(O)cccc2C1)[C@H]1CCc2c(O)cccc2C1`, for which, in the assay filed under Rattus norvegicus, the Ratio Ki is 2.7. Moreover, the Ki on D(2) dopamine receptor turned out to be 0.0059 µM; at D(3) dopamine receptor, 0.0022 µM.

As usually defined, the Ki is a dissociation constant, usually derived from enzyme kinetics or from competition with a known ligand. Lower therefore signals a stronger hold on the target.
